One compound from patent US20240139125A1 (INDUSTRIAL COOPERATION FOUNDATION JEONBUK NATIONAL …, priority 2020, published 2024) can be followed below.

Common to all, as to assay type: cell-based
Experiment [1] has as its system HT1080 and MDA-MB-231 cells. Put plainly: Cell invasion assay. On the procedure:
FIG. 65B is an image of an invasive cell in HT1080 and MDA-MB-231 cells treated with 2.0 μM BIA. The graph on the right quantifies invading cells from BIA-treated cells normalized to control cells (n=3 independent experiments). Data were expressed as mean±SD. **p<0.01, ***p<0.001, two-tailed unpaired t-test. The scale bar represents […].
Cells were moved through the polyethylene terephthalate membrane (BD Biosciences) of the insert for 12 hours, and then fixed, crystal violet staining was performed to measure the degree of invasion.
Cell invasion experiments were performed according to the method of the Invasion Assay Kit (corning, 3458). Put a cell culture insert into the 24-well cell culture plate, DMEM medium with 10% FBS added outside the insert , and no FBS added inside the insert. 2.0 μM BIA was added to HT1080 and MDA-MB-231 and incubated at 37° C. for 12˜24 hours. Removed the medium in the 24-well culture plate and the medium inside the insert Then, a cotton swab was used to remove the remaining cells in the insert. After fixing the insert in 4% formaldehyde solution, stain the cells that penetrate the bottom of the insert with crystal violet solution, wash it with tertiary distilled water, and then at room temperature Dried and dried inserts were observed under a microscope.

The next experiment deals with HT1080. Put plainly: Cell proliferation/viability with BIA, IC50 after 3 days. The note with it: Homo sapiens, HT-1080, 72 h; HT1080, treatment for 3 days.
Experiment [2] relates to HT1080, MCF7, MDA-MB-231 and SKBR3 cells. Put plainly: Cell migration (Transwell, wound healing). The protocol:
Image (A) and quantification graph (B) (n=3 independent experiment).
FIG. […] The graph on the right quantifies migrated cells from BIA-treated cells normalized to control cells (n=3 independent experiments. Data were expressed in mean±SD. **p<0.01, ***p<0.001, two-tailed unpaired t-test simulation. The scale bar represents 15 μm.
It was used and checked. Cells were treated with trypsin, and serum and 2×10^4 cells were added to the upper chamber in DMEM, cells transported to the lower chamber via transwell for 12 hours were fixed and stained with crystal violet to perform migration analysis.

Experiment [3] concerns AKT serine phosphorylation (S473). Put plainly: AKT phosphorylation by Western blotting. The protocol: This is AKT signaling key to cancer cell growth, and BIA and its analogues tend to inhibit it. Only representative experimental results were presented. Data were expressed as mean±SD. After one-way ANOVA, Tukey's post hoc test is conducted.
After cell recovery, cell lytic buffer (10 mM Tris-Cl (pH 7.4), 5 mM EDTA, 130 mM NaCl, 1% Triton X-100) and protease inhibitor mix protease inhibitor cocktail (protease inhibitor cocktail and phosphatase inhibitor cocktail) were added and left at 4° C. for 30 minutes. After breaking the cells with ultrasound, they were centrifuged at 13,000× g at 4° C. for 30 minutes, and then the supernatant was taken, and the concentration was quantified using a protein quantification kit (Bio-Rad Laboratories, Hercules, CA, USA). 20 ug of the obtained protein was electrophoresis with polyacrylamide gel electrophoresis (SDS-PAGE) followed by electrotransfer to PVDF membrane (Bio-Rad). The membrane was blocked at room temperature for 1 hour with a TBS-T solution (20 mM Tris (pH 7.5), 137 mM NaCl, 0.05% Triton X-100) containing 5% skim milk. Then, after switching to a solution containing the primary antibody, it was reacted at 4° C. The membrane after the reaction was washed three times with TBS-T solution, reacted with a secondary antibody, and then luminesced using an ECL kit and autoradiography. […]

The test system of a further experiment is SKBR3. Put plainly: Cell proliferation/viability with BIA, IC50 after 3 days. To be noted: Homo sapiens, SK-BR-3, 72 h; SKBR3 cells, treatment for 3 days.
Experiment [4] deals with HT1080 cells stably overexpressing BI-1. Put plainly: Cell proliferation of BI-1 overexpressing cells with BIA. The note with it: 1 day after treatment.

`Nc1ccccc1C(=O)/C=C/c1cccc([N+](=O)[O-])c1` [BIA, 2E-1-2-Aminophenyl-3-3-nitrophenyl-2-propen-1-one]: the cell invasion result is recorded as “very pronounced cell invasion inhibition” in experiment [1] (HT1080 fibrosarcoma cells, 12 hours); “reduced” in experiment [1] (MDA-MB-231 and HT1080 cells, 2.0 μM BIA). In addition, the half-maximal inhibitory concentration (IC50) stood at 1700 ± 100 nM in the experiment on HT1080 and 2400 ± 400 nM in the experiment with SKBR3. The cell migration result is reported as “reduced” in experiment [2] (HT1080, MCF7, MDA-MB-231 and SKBR3 cells, 2.0 μM BIA); “reduced” in experiment [2] (HT1080 cells, FIGS. 64A and 64B (migration, wound healing 2 μM)). The “migration of cancer cells” value in experiment [2] (HT1080 fibrosarcoma cells, 10 μM, Transwell 12 hours) is “strongly inhibited”. Further, the “phosphorylation of AKT” value in experiment [3] (BIA-treated cells, following loss of BI-1/mTORC2/ribosome binding) is listed as “complete reduction”; in experiment [3] (MDA-MB-231 cells, 1 or 2 μM) it was “equally inhibited”; in experiment [3] (SKBR3 cells, 1 or 2 μM) it was “equally inhibited”. In experiment [3] (HT1080 cells, 1 or 2 μM), the “AKT serine phosphorylation S473” value is “inhibited”. The “sensitivity to BIA (cell proliferation)” value in experiment [4] is given as “high sensitivity”.
